Assay results from patent US20200031811A1, “SUBSTITUTED MONO- AND POLYAZANAPHTHALENE DERIVATIVES AND THEIR USE” (Basilea Pharmaceutica International AG, priority 2015, published 2020).

Experiments:
[1] = system: human pancreatic cancer cell line MiaPaCa2 (ATCC CRL-1420); assay: Cell growth assay (CellTiterGlo, 72 hours); format: cell-based; conditions: for IC50: MIA PaCa-2, MiaPaCa2 cells, 72 hours, read-out: IC50 MiaPaCa; for inhibition at 100 µM: MIA PaCa-2, at 100 μM; for inhibition at 100 µM / inhibition at 50 µM: read-out: Inhibition of MiaPaCa growth at indicated concentration; for inhibition at 50 µM: MIA PaCa-2, at 50 μM
Protocol: The inhibition of cell growth by the compounds was tested by exposing the human pancreatic cancer cell line MiaPaCa2 (ATCC CRL-1420) to the compounds. The assay was performed in 384 well clear bottom white microtiter plates (Greiner #781098). Each well was seeded with 10^3 cells in 20 μl of Dulbecco's modified Eagle's medium (Sigma D6796) supplied with 10% fetal calf scrum (Sigma F7524), 2.5% horse serum (Sigma H0146), 1% Penicillin-Streptomycin (Sigma P0781), 1% MEM nonessential amino acid solution 100× (Sigma M71459) and 1% 200 mM L-Glutamine (Sigma G7513) culture medium. After overnight incubation at 37° C. in 5% CO2 the compounds were added in the following concentrations: 100, 50, 20, 10, 5, 2, 1, 0.5, 0.2 and 0.1 μM. Each compound concentration was tested in quadruplicate. The incubation was then continued for 72 hours. After 72 hours the growth of the cells was assessed by the addition of the CellTiterGlo reagent (Promega G9242) as instructed by the provider. The luminescent signal was recorded on a SpectraMax M2 microplate reader. The signal obtained in wells containing cells cultivated in the absence of compound was set to 100% growth after subtracting the signal obtained in medium only wells. The % growth in each well was calculated by subtracting the medium only value and dividing through the 100% growth value. The IC50 for cell growth, the concentration of compound at which cell growth was reduced to 50%, was calculated with the GraFit6 software (Erythacus software).

MNK1 = biological target: T1, MNK1 (Homo sapiens, UniProt Q9BUB5); assay: MNK inhibition assay (Z-Lyte kinase assay, Ser/Thr 7 peptide); format: biochemical; conditions: for IC50: recombinant GST-MNK1, 3 hours at 31° C.; for inhibition at 10 µM / inhibition at 1 µM: read-out: Inhibition of MNK1 activity at indicated concentration
T1 construct: purchased Life Technologies or Carna Biosciences PV6023 or 02-145; host or cells: baculovirus infected insect cells
Excerpt: For the measurement of the activity of the MNK1 kinase the Z-Lyte kinase assay system was used. The kinase activity of MNK1 can be quantified with the Z-Lyte kinase assay kit Ser/Thr 7 peptide (Life Technologies PV3180). The kit was utilized according to the instructions of the provider. A recombinant GST-MNK1 fusion protein produced in and purified from baculovirus infected insect cells was used as enzyme source (GST-MNK1 Life Technologies PV6023 or Carna Biosciences 02-145). It was verified that both sources of the MNK1 enzyme gave similar IC50 values with several compounds. The MNK1 enzyme assay was performed in 384 well round bottom black microtiter plates (Corning 3676). The kinase reaction was performed for 3 hours at 31° C. As instructed by the provider of the kit the amount of enzyme was chosen such that ˜30% of the substrate peptide was phosphorylated in control wells containing buffer only. The MNK1 inhibiting activity of compounds was tested by adding the compounds to the kinase reaction at a concentration of 10000, 5000, 2000, 1000, 500, 200, 100, 50 nM. Compounds with strong MNK1 inhibition were tested at 20, 10, 5, 2, 1 and 0.5 nM in addition. Each compound concentration was tested at least in duplicate. The % phosphorylation of the substrate peptide at each compound concentration was calculated as described in the assay manual. The fluorescent signals were recordes on Biotek Cytation 3 microplate reader. The IC50, the concentration that reduced substrate phosphorylation by 50% if compared to buffer only wells, was calculated with the Grafit 6 software (Erythacus software).

T1 sequence (Q9BUB5 whole entry): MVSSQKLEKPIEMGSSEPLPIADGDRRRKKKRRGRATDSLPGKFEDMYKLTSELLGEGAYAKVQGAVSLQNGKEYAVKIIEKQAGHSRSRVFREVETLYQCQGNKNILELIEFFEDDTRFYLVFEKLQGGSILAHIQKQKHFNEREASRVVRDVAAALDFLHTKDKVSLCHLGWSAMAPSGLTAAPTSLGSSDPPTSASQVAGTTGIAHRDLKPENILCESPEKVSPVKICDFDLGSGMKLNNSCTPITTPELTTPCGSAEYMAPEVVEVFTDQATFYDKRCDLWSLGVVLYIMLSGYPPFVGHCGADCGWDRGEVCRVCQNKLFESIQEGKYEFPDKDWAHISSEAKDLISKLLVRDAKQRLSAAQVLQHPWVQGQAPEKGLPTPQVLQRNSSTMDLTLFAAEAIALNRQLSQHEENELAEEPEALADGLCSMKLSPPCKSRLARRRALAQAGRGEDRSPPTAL

| Compound | IC50 [1] [µM] | IC50 (MNK1) [µM] | other results |
| --- | --- | --- | --- |
| Oc1cnccc1NCc1ccc2cncc(-c3cc4ccccc4o3)c2c1 [Example 73] | 15 | 0.005 | – |
| O=c1cc(NCc2ccc3cncc(-c4cc5ccccc5o4)c3c2)cc[nH]1 [Example 74] | 19.2 | 0.0053 | – |
| O=[N+]([O-])c1cnccc1NCc1ccc2cncc(-c3cc4ccccc4o3)c2c1 [Example 75, N-[[4-(Benzofuran-2-yl)-6-isoquinolyl]methyl]-3-nitro-pyridin-4-amine] | 18 | 2.13 | – |
| Nc1cnccc1NCc1ccc2cncc(-c3cc4ccccc4o3)c2c1 [Example 76, N4-[[4-(Benzofuran-2-yl)-6-isoquinolyl]methyl]pyridine-3,4-diamine] | 4.75 | 0.0059 | – |
| FC(F)(F)c1cnccc1NCc1ccc2cncc(-c3cc4ccccc4o3)c2c1 [Example 77] | 10 | 1.13 | – |
| c1ccc2oc(-c3cncc4ccc(OC5CCNCC5)cc34)cc2c1 [Example 78, 4-(Benzofuran-2-yl)-6-(4-piperidyloxy)isoquinoline] | 3.46 | 0.208 | – |
| N[C@H]1CC[C@H](Oc2ccc3cncc(-c4cc5ccccc5o4)c3c2)CC1 [Example 79, 4-[[4-(Benzofuran-2-yl)-6-isoquinolyl]oxy]cyclohexanamine] | 4.72 | 0.401 | – |
| N[C@H]1CC[C@@H](Oc2ccc3cncc(-c4cc5ccccc5o4)c3c2)CC1 [Example 80] | 3.55 | 0.675 | – |
| c1ccc(-c2cnnc3ccc(CN4CCNCC4)cc23)cc1 [Example 83, 4-Phenyl-6-(piperazin-1-ylmethyl)cinnoline] | – | – | inhibition at 100 µM [1]: 31%; inhibition at 10 µM (MNK1): 54% |
| NC1CCN(Cc2ccc3nncc(-c4ccccc4)c3c2)CC1 [Example 84] | – | 3.73 | inhibition at 100 µM [1]: 33% |
| Oc1ccc(-c2cnnc3ccc(CN4CCNCC4)cc23)cc1 [Example 85] | – | 0.318 | inhibition at 100 µM [1]: 33% |
| NC1CCN(Cc2ccc3nncc(-c4ccc(O)cc4)c3c2)CC1 [Example 86] | – | 0.174 | inhibition at 100 µM [1]: 50% |
| N[C@H]1CC[C@H](Nc2ccc3c(=O)[nH]cc(-c4cc5ccccc5o4)c3c2)CC1 [Example 87, 6-[(4-Aminocyclohexyl)amino]-4-(benzofuran-2-yl)-2H-isoquinolin-1-one] | 4.47 | 1.98 | – |
| Nc1ncc(-c2ccccc2)c2cc(CN3CCNCC3)ccc12 [Example 91, 4-Phenyl-6-(piperazin-1-ylmethyl)isoquinolin-1-amine] | 11.3 | 0.476 | – |
| Nc1ncc(-c2ccccc2)c2cc(CN3CCC(N)CC3)ccc12 [Example 92] | 7.2 | 0.577 | – |
| Nc1ncc(-c2ccc(O)cc2)c2cc(CN3CCNCC3)ccc12 [Example 93] | – | 0.197 | inhibition at 50 µM [1]: 27% |
| Nc1ncc(-c2ccc(O)cc2)c2cc(CN3CCC(N)CC3)ccc12 [Example 94] | – | 0.221 | inhibition at 50 µM [1]: 27% |
| CN(C)CCOc1ccc2cncc(-c3cc4ccccc4o3)c2c1 [Example 95, 2-[[4-(Benzofuran-2-yl)-6-isoquinolyl]oxy]-N,N-dimethyl-ethanamine] | 8.38 | 1.73 | – |
| Cn1nccc1Oc1ccc2cncc(-c3cc4ccccc4o3)c2c1 [Example 96] | 6.14 | 3.99 | – |
| Cn1nccc1OCc1ccc2cncc(-c3cc4ccccc4o3)c2c1 [Example 97, 4-(Benzofuran-2-yl)-6-[(2-methylpyrazol-3-yl)oxymethyl]isoquinoline] | 10.8 | 0.397 | – |
| Cn1nccc1Nc1ccc2cncc(-c3cc4ccccc4o3)c2c1 [Example 98, 4-(Benzofuran-2-yl)-N-(2-methylpyrazol-3-yl)isoquinolin-6-amine] | 9.88 | – | inhibition at 1 µM (MNK1): 40% |

| Compound | IC50 [1] [µM] | IC50 (MNK1) [µM] | other results |
| --- | --- | --- | --- |
| CN(C)CCNc1ccc2cncc(-c3cc4ccccc4o3)c2c1 [Example 99, N-[4-(Benzofuran-2-yl)-6-isoquinolyl]-N′,N′-dimethyl-ethane-1,2-diamine] | 4.39 | – | inhibition at 1 µM (MNK1): 60% |
| NCCNc1ccc2cncc(-c3cc4ccccc4o3)c2c1 [Example 100, N′-[4-(Benzofuran-2-yl)-6-isoquinolyl]ethane-1,2-diamine] | 4.01 | – | inhibition at 10 µM (MNK1): 51% |
| Cn1nccc1NCc1ccc2cncc(-c3cc4ccccc4o3)c2c1 [Example 101] | 18.9 | 0.18 | – |
| NCCOc1ccc2cncc(-c3cc4ccccc4o3)c2c1 [Example 102, 2-[[4-(Benzofuran-2-yl)-6-isoquinolyl]oxy]ethanamine] | 7 | 1.05 | – |
| NCCCNC(=O)c1ccc2cncc(-c3cc4ccccc4o3)c2n1 [Example 103, N-(3-aminopropyl)-8-(benzofuran-2-yl)-1,6-naphthyridine-2-carboxamide] | 4.12 | 0.088 | – |
| NCCCOCc1ccc2cncc(-c3cc4ccccc4o3)c2c1 [Example 105, 3-[[4-(Benzofuran-2-yl)-6-isoquinolyl]methoxy]propan-1-amine] | 12.8 | 0.089 | – |
| NCCCOCc1ccc2cncc(-c3ccc(Cl)cc3)c2c1 [Example 106] | 20.7 | – | inhibition at 1 µM (MNK1): 34% |
| NCCCOCc1ccc2cncc(-c3ccc(Cl)c(Cl)c3)c2c1 [Example 107] | 21 | 1.12 | – |
| NCCCOCc1ccc2cncc(-c3ccc(NC(=O)Nc4ccccc4)cc3)c2c1 [Example 108, 1-[4-[6-(3-Aminopropoxymethyl)-4-isoquinolyl]phenyl]-3-phenyl-urea] | 15 | 3.51 | – |
| NCCCOCc1ccc2c(N)ncc(-c3cc4ccccc4o3)c2c1 [Example 109, 6-(3-Aminopropoxymethyl)-4-(benzofuran-2-yl)isoquinolin-1-amine] | 8.54 | 0.687 | – |
| NCCCOCc1ccc2c(N)ncc(-c3ccc(Cl)cc3)c2c1 [Example 110] | 11.3 | 0.395 | – |
| NCCCOCc1ccc2c(N)ncc(-c3ccc(Cl)c(Cl)c3)c2c1 [Example 111] | 8.32 | 1.15 | – |
| NCCCOCc1ccc2c(N)ncc(-c3ccc(NC(=O)Nc4ccccc4)cc3)c2c1 [Example 112, 1-[4-[1-Amino-6-(3-aminopropoxymethyl)-4-isoquinolyl]phenyl]-3-phenyl-urea] | 43.8 | – | inhibition at 1 µM (MNK1): 19% |
| NC1CCN(Cc2ccc3cncc(-c4ccc(NC(=O)Nc5ccc(Cl)cc5)cc4)c3c2)CC1 [Example 113, 1-[4-[6-[(4-Amino-1-piperidyl)methyl]-4-isoquinolyl]phenyl]-3-(4-chlorophenyl)urea] | 9.21 | 3.15 | – |
| NC1CCN(Cc2ccc3cncc(-c4ccc(NC(=O)Nc5cccc(Cl)c5)cc4)c3c2)CC1 [Example 114] | 3.83 | 1.21 | – |
| NC1CCN(Cc2ccc3cncc(-c4ccc(NC(=O)Nc5ccncc5)cc4)c3c2)CC1 [Example 115] | – | 0.49 | inhibition at 100 µM [1]: 52% |
| CC(C)(C)c1cc(NC(=O)Nc2ccc(-c3cncc4ccc(CN5CCC(N)CC5)cc34)cc2)no1 [Example 116] | 3.07 | 0.887 | – |
| NC1CCN(Cc2ccc3cncc(-c4ccc(NC(=O)Nc5cccnc5)cc4)c3c2)CC1 [Example 117] | – | 0.603 | inhibition at 100 µM [1]: 34% |
| NC1CCN(Cc2ccc3cncc(-c4ccc(NC(=O)NC5CC5)cc4)c3c2)CC1 [Example 118] | – | 0.422 | inhibition at 100 µM [1]: 48% |
| NC1CCN(Cc2ccc3cncc(-c4ccc(NC(=O)Nc5ccccn5)cc4)c3c2)CC1 [Example 119] | 2.56 | 0.388 | – |
